Reference: patent US8673347B2 (Creabilis Therapeutics S.p.A., priority 2005, dated 2014)
Where two headings read alike, the source gives them in different places.

Experiments:
[1] = Dermal absorption study in mice of K-252a versus K-252a-PEG; type: in vivo; conditions: male, Balb/C, mouse, plasma, topical, 3 mg/kg dermal
Protocol: The experiment was performed using a dose of active agent in both preparation of 3 mg/kg. For the present study, three subsequent experiments have been performed in vivo using each time 6 Balb/C male mice purchased from Charles River (Calco, Italy). The mice were subdivided in the following experimental groups (two animals per group): • Group 1: The mice were treated with 3 mg/kg of K-252-a, by dermal administration and sacrificed after 30 minutes. • Group 2: The mice were treated with 3 mg/kg of K-252-a by dermal administration and sacrificed after 60 minutes. • Group 3: The mice were treated with 3 mg/kg of K-252-a-PEG(2K) of Example 1 by dermal administration and sacrificed after 60 minutes.
The oil-based preparations are in form of emulsions which are rendered homogeneous by repeated sonication. […] The applied emulsion was gently massaged on the back of the mice to favor the absorption. The mice were then sacrificed respectively after 30 or 60 minutes under ether anaesthesia and the blood was collected from the ventral aorta with the insulin syringe (approx. 1 mL/animal). […] The blood samples were then centrifugated at 2000 g for 5 minutes in a refrigerated (4° C.) centrifuge, purified by solid phase extraction (SPE) and subsequently analyzed through HPLC quantitative analysis (RT-HPLC analysis with)(Terra C18 column, eluent water/ACN). […]

[2] = PK study in mice, single dermal administration; type: in vivo
Protocol: (§1) At each sampling time, approximately 0.4 mL blood samples were collected from the ventral aorta of each animal using an insulin syringe, under deep ether anesthesia, and transferred into polyethylene Eppendorf tubes containing 50 μL of 5% EDTA water solution to prevent blood clotting. Blood samples were kept in ice until centrifugation at 1400 g for 5 min. in a refrigerated centrifuge (2-4° C.). From each tube plasma samples were then recovered, put in new Eppendorf tubes and frozen at −20° C. which until the HPLC analysis.
Computer fitting of the data from each experimental group was then performed by NCOMP version 3.1 program (P. B. Laub et al., Journal of Pharmaceutical Sciences, 1996, 85(4):393-395). Values for area under the plasma concentration-time profile, T1/2, Tmax, Cmax, etc. were calculated by conventional formulas previously described (Gibaldi et al., Pharmacokinetics, 1982, Marcel Dekker, Inc., New York).

[3] = tested on: human keratinocytes; test: MTT-assay, antiproliferative activity on keratinocytes; type: cell-based
Protocol: A metabolic MTT-assay was performed as test of the cellular vitality. The MTT-assay was performed using a well known and validated protocol, whereby the results are quantified through a spectrophotometric lecture, the number of living cells being directly proportional to the quantity of the formazan product formed as reduction product of MTT ([3-(4,5-dimethylthiazol-2-yl)-2,5-diphenyltetrazoliumbromid]) (Mosmann T., Rapid colorimetric assay for cellular growth and survival: Application to proliferation and cytotoxicity assays. J. Immunol. Methods. 1983, Dec. 16, 65(1-2):55-63). In the present study, the MTT-assay was performed on subconfluent cultures of keratinocytes seeded in 96-well plates for cellular culture (8000 cells/well). After the cells have been exposed to the substance which has to be analyzed, the cells are incubated for 4 hours at 37° C. with MTT (0.05%) in serum-free keratinocyte growth medium (KGM Clonetics Corp. San Diego, Calif., USA). After solubilisation of the cells with detergents, the formation of the dyestuff formazan is detected using a spectrophotometer for multi-well plate at 540 nm. The results are given as optical density unit (OD). […]

[4] = Acute single dose toxicity study in mice, intraperitoneal route; type: in vivo; conditions: for LD50 at 7 days: Balb/c, mouse, in vivo, ip, single dose intraperitoneal
Protocol: (§2) Observations, which included clinical signs and behavioral changes, were performed every 30 minutes in the first 6 hour following administration, and twice a day during the following 7 days.

[5] = PK study in mice, repeated dermal administration; type: in vivo; conditions: repeated dermal QD for 5 days, 1.03 mg/kg (about 2 μmol/kg), t = 3 h after last administration
Protocol: as §1

[6] = Acute single dose toxicity study in mice, oral administration; conditions: both sexes, Balb/c, mouse, in vivo
Protocol: as §2
Similar results have been obtained following oral administration.

[7] = biological target: TrkB (Homo sapiens, UniProt Q16620); test: Kinase inhibition profile; type: biochemical; conditions: 200 nM; read-out: inhibitory activity
TrkB, sequence (Q16620 32-822, species assumed): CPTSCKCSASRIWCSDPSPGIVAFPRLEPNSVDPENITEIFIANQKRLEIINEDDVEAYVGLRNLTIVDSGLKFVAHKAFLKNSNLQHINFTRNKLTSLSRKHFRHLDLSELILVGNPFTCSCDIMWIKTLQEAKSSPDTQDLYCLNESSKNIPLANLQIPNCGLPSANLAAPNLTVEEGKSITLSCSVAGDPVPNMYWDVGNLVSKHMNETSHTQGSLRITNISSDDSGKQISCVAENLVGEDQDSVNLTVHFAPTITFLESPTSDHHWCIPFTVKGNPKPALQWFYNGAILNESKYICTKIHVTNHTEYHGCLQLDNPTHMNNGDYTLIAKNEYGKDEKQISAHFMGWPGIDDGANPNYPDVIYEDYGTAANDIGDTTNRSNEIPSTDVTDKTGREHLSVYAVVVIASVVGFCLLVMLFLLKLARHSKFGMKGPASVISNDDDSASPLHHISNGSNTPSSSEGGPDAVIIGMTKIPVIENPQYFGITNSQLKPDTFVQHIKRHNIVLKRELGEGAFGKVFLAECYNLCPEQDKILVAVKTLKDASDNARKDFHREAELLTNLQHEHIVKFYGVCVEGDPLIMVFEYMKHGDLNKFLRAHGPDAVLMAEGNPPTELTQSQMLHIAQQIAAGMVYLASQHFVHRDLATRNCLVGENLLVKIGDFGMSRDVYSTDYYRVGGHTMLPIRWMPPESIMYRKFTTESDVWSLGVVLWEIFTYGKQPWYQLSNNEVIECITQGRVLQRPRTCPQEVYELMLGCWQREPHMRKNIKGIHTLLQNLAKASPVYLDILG
Protocol: (§3) The preparation of CT327 and the reference compounds was conducted following a similar procedure. CT327 also was tested at a concentration of 200 nM.
(§4) The inhibitory activity of CT327 against the tested tyrosine kinase and serine/threonine kinases is shown in the Table a and b, respectively, reported in FIG. 9b.

[8] = biological target: FLT3 (Homo sapiens, UniProt P36888); test: Kinase inhibition profile; type: biochemical; conditions: 200 nM; read-out: inhibitory activity
FLT3, sequence (P36888 27-993, species assumed): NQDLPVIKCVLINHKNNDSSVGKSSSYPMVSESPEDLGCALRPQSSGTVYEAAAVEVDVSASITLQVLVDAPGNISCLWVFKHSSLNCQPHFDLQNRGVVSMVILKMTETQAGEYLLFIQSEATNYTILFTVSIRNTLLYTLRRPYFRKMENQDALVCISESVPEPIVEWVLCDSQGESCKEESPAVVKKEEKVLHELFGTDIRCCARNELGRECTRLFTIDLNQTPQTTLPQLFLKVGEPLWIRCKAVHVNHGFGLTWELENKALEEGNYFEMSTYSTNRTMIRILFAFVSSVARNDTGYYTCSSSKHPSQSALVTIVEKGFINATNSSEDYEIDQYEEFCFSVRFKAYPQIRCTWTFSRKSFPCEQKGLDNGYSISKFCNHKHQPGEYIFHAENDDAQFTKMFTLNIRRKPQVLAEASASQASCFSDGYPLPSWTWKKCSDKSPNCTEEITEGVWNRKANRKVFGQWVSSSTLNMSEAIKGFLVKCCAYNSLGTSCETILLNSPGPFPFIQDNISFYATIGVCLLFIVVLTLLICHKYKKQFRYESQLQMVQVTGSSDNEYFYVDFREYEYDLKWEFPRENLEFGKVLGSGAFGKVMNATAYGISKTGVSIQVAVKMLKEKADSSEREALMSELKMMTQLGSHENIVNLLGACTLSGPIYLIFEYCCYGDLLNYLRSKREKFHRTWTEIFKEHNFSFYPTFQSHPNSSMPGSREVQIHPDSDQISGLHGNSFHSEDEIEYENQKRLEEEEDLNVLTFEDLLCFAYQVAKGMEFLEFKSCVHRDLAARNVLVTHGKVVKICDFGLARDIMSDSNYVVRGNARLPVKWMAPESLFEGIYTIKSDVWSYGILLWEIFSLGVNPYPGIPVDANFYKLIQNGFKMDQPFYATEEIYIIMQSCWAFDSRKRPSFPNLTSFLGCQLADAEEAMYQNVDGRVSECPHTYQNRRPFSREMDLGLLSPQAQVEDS
Protocol: as §3, §4

[9] = biological target: KIT (Homo sapiens, UniProt P10721); test: Kinase inhibition profile; type: biochemical; conditions: 200 nM; read-out: inhibitory activity
KIT, sequence (P10721 26-976, species assumed): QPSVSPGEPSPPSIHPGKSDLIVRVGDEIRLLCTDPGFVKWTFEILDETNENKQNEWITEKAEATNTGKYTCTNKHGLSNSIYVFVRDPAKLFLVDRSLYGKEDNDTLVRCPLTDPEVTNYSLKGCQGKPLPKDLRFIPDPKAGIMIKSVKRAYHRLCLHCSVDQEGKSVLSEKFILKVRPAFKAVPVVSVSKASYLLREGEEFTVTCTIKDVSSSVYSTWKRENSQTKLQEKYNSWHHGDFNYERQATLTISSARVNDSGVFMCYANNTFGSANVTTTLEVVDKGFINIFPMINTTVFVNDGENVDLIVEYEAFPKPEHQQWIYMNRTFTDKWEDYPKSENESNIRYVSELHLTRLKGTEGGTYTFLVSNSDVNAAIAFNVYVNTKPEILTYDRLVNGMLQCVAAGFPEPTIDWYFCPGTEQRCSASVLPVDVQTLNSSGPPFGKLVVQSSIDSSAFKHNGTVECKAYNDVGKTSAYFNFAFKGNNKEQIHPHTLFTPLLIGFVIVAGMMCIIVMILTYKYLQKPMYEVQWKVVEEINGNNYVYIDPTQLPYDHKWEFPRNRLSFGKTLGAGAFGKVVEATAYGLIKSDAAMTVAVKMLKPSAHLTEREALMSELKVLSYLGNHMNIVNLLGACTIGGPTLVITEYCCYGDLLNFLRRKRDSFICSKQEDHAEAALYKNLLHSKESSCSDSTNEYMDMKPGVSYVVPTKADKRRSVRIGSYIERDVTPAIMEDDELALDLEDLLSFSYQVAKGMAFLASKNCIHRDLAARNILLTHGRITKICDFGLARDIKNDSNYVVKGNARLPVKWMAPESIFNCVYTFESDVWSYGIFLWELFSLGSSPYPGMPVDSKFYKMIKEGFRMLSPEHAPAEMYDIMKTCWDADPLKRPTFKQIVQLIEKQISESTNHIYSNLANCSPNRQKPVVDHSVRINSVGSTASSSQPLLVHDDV
Protocol: as §3, §4

[10] = biological target: RET (Homo sapiens, UniProt P07949); test: Kinase inhibition profile; type: biochemical; conditions: 200 nM; read-out: inhibitory activity
RET, sequence (P07949 29-1114, species assumed): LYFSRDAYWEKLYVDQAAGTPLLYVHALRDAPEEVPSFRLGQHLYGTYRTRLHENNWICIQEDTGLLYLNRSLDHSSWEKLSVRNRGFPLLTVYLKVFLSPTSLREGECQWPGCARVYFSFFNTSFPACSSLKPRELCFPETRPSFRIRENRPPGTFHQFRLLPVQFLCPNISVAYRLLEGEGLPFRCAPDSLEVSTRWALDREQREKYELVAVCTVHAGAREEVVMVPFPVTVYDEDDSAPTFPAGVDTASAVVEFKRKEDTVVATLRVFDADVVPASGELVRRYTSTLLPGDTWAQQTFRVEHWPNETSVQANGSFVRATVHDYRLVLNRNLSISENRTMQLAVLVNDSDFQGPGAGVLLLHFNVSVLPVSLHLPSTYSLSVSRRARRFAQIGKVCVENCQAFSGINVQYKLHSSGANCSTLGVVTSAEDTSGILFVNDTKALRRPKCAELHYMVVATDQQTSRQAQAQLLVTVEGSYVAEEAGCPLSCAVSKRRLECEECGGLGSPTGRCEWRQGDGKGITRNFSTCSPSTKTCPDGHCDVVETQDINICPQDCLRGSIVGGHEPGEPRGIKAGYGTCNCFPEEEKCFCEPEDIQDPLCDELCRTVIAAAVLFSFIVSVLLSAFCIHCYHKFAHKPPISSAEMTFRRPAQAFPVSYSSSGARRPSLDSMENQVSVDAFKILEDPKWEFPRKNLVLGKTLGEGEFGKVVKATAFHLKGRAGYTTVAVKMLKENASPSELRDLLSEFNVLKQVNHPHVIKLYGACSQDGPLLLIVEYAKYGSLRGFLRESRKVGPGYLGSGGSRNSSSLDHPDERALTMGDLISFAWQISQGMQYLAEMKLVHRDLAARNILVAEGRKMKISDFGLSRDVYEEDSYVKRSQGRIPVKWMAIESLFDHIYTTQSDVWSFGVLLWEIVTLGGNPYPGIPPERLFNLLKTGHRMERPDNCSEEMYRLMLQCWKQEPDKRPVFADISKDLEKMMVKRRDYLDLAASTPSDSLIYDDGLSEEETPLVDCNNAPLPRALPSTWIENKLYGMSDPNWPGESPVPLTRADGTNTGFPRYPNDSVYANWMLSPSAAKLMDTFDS
Protocol: as §3, §4

[11] = animal model of pancreatic pain; cited from earlier work
[12] = male, Balb/c, mouse, topical or ocular, 10 umol/kg, single dermal, plasma

COC(=O)[C@]1(O)C[C@@H]2O[C@@]1(C)n1c3ccccc3c3c4c(c5c6ccccc6n2c5c31)C(=O)NC4 [Compound K-252a, K-252a] gave a concentration at 30 min ([1]; sacrificed after 30 minutes) of 23.3 ng/mL, a concentration at 60 min ([1]; sacrificed after 60 minutes) of 42.1 ng/mL and a half-life ([2]; male, Balb/c, mouse, plasma, topical or ocular, 5.075 mg/kg, single dermal administration, read-out: half-life) of 1.05 h. The concentration at 3 h ([2]; male, Balb/c, mouse, plasma, topical, single dermal administration at same dosage (2 μmol/kg) and time point (3 hours), value±95% CI) was 72.9 nM, the half-life ([2]; male, Balb/c, mouse, topical or ocular, 10 umol/kg, single dermal, 10 μmol/kg, plasma, read-out: Terminal T1/2) was 1.05 h and the AUC(0-inf) [2, 12] was 4.75 µM·h. The Cmax [2, 12] was 908 nM, the Tmax [2, 12] was 3 h and the “time detectable in plasma after administration” value ([2]; single dermal administration) was ≥ 9 h. For the same compound, the “concentration with statistically significant antiproliferative action” value ([3]; any contact time (1, 2, 4 h), cell counting after 48 h) was 200 nM, the antiproliferative activity ([3]; contact 1, 2, 4 h, cell counting after 96 h) was “obtained for any tested concentration and any contact time” and the LD50 at 7 days ([4]; female mice, read-out: LD50) was 41.4 mg/kg. For the same compound, the LD50 at 7 days ([4]; male mice, read-out: LD50) was 37.7 mg/kg, the LD50 at 7 days ([4]; both sexes, males and females together, read-out: average LD50) was 39 mg/kg and the survival ([4]; female mice, 45 mg/kg, five per group) was “One female survived out of the five”. The survival ([4]; female mice, 60 mg/kg, five per group) was “one”, the survival ([4]; female mice, doses higher than 60 mg/kg) was “lethal to all female mice” and the survival ([4]; female mice, lowest dose (30 mg/Kg)) was “survived”. The survival ([4]; male mice, 30 mg/Kg) was “survived”, the survival ([4]; male mice, all doses above 30 mg/Kg, within the first 22 hours after dosing) was “found dead” and the sedation ([4]; males and females, lowest dose (30 mg/Kg), disappeared within 8-10 hours) was “very mild/mild sedation”. The concentration at 3 h ([5]; male, Balb/c, mouse, plasma, topical, 1.03 mg/kg) was 110 nM, the concentration at 3 h ([5]; read-out: Mean Plasma Concentration) was 110.19 nM and the LD50 at 7 days [6] was 78 mg/kg. For the same compound, the inhibition at 0.2 µM [7] was > 90%, the inhibition at 0.2 µM [8] was > 90% and the inhibition at 0.2 µM [9] was 80 to 90%. For the same compound, the inhibition at 0.2 µM [10] was > 90% and the hypersensitivity [11] was “attenuates hypersensitivity”.
